Measurements: publication PMC11249646, “Small-Molecule Disruptors of the Interaction between Calcium- and Integrin-Binding Protein 1 and Integrin αIIbβ3 as Novel Antiplatelet Agents” (ACS Pharmacology & Translational Science, 2024)
Read-outs that look alike come from different tables or passages of the source.

Target: T1, CIB1 and αIIb interaction (CIB1-GST : F-αIIb peptide) (Homo sapiens, UniProt Q99828)
T1 construct: made in house; host or cells: BL-21 plus RIL cells (E. coli)
T1 sequence (Q99828 1-191): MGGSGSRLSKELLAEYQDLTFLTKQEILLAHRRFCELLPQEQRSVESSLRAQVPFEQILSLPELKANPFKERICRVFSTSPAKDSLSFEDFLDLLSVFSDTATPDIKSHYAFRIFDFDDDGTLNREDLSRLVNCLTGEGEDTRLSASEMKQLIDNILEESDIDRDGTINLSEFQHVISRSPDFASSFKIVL
Experiment: FP assay, 1536-well qHTS format (primary and confirmatory screen)
Assay type: binding
Settings: for Efficacy (%): negative = inhibition; for Curve Class: negative sign = inhibitory curve; for IC50: read-out: IC50

[1] = qHTS primary screen hits, Table S2
[2] = qHTS primary screen of LOPAC/NPACT libraries
[3] = qHTS FP screen hits, Table S2, one class per curve where COUNT > 1
[4] = qHTS primary screen hits, Table S2, several classes where COUNT > 1

SMILES	Efficacy (%) [1]	Curve Class [1]	IC50 [1]	Efficacy (%) [2]	Curve Class [2]	IC50 [2]	further results
O=C(O)C(F)(F)F.O=C(c1cnc(N2CCCCC2)c2ccccc12)N1CCN(c2ccccc2)CC1 [NCGC00262736-01]	-64%	-3	31.6 µM	–	–	–	–
Clc1ccccc1C(c1ccccc1)(c1ccccc1)n1ccnc1 [NCGC00015251-09]	–	–	–	-14%	-2.4	20 µM	–
O=C(c1cc(O)c(O)c([N+](=O)[O-])c1)c1ccccc1F [NCGC00015881-04]	–	–	–	-35%	-2.2	39.8 µM	–
C=Cc1c(C)c2cc3[nH]c(cc4nc(cc5nc(cc1[nH]2)C(C)=C5CCC(=O)O)C(CCC(=O)O)=C4C)c(C)c3C=C [NCGC00015844-10]	–	–	–	–	–	–	Efficacy (%) (qHTS FP screen hits, Table S2): -75%; Curve Class [3]: -2.2; IC50 (qHTS FP screen hits, Table S2): 42.2 µM
Cc1ccnc(N(C)C(=S)N2CCN(c3cccc(C(F)(F)F)c3)CC2)c1.O=C(O)C(F)(F)F [NCGC00241084-01]	-24%	-2.4	50.1 µM	–	–	–	–
CCCCCCCCCCCCCCCC[N+](C)(C)CC.[Br-] [NCGC00166120-02]	-45%	–	89.1 µM	–	–	–	Curve Class [4]: -3
COc1ccnc(C[S+]([O-])c2nc3cc(OC(F)F)ccc3[nH]2)c1OC (stereo not shown) [NCGC00388526-02]	–	–	–	-26%	-2.4	56.2 µM	–
Cc1cc2c(cc1C1(c3ccc(C(=O)O)cc3)CC1)C(C)(C)CCC2(C)C [NCGC00241454-01]	-27%	–	79.4 µM	–	–	–	Curve Class [4]: -2.4
CNc1nc2c(s1)C(c1ccc(OC)cc1OC)CC(=O)N2.O=C(O)C(F)(F)F (stereo not shown) [NCGC00488262-02]	-39%	-2.4	56.2 µM	–	–	–	–
CCOc1cc(C(C)(C)C)ccc1C1=N[C@@](C)(c2ccc(Cl)cc2)[C@@](C)(c2ccc(Cl)cc2)N1C(=O)N1CCN(CC(=O)N2CCOCC2)CC1 [NCGC00378588-02]	-29%	–	49.1 µM	–	–	–	Curve Class [4]: -2.4
O=C1c2ccccc2-c2n[nH]c3cccc1c23 [NCGC00261158-01]	-52%	-1.2	14.1 µM	–	–	–	–
O=C(O)C(F)(F)F.OC(CN1CCCCC1)Cn1c2ccc(Cl)cc2c2cc(Cl)ccc21 (stereo not shown) [NCGC00356030-01]	-35%	-3	79.4 µM	–	–	–	–
COc1ccc2c(c1)c(CC(=O)O)c(C)n2Cc1ccc(Cl)cc1 [NCGC00015217-05]	-44%	-2.2	39.8 µM	–	–	–	–
Cc1ccc(-n2nc(C(C)(C)C)cc2NC(=O)Nc2ccc(OCCN3CCOCC3)c3ccccc23)cc1 [NCGC00241104-02]	-32%	–	44.7 µM	–	–	–	Curve Class [4]: -2.4
N#Cc1ccc(NS(=O)(=O)c2ccc(NC(=O)Cc3ccc(Cl)c(Cl)c3)cc2)cc1.O=C(O)C(F)(F)F [NCGC00253445-02]	–	–	–	–	–	–	Efficacy (%) (qHTS FP screen hits, Table S2): -18%; IC50 (qHTS FP screen hits, Table S2): 3.5 µM
CC(=O)O.Cc1ccc(OCCn2c(CCNC(=O)c3ccc(N)cc3)nc3ccccc32)cc1 [NCGC00241723-01]	-31%	-1.4	44.7 µM	–	–	–	–
CCCC(C(=O)OCCN(CC)CC)(c1ccccc1)c1ccccc1.Cl [NCGC00015799-04]	–	–	–	-14%	-2.4	56.2 µM	–
CC(C)(O)CC(=O)NCCn1ccc2ncnc(Nc3ccc(Oc4cccc(C(F)(F)F)c4)c(Cl)c3)c21 [NCGC00346699-06]	–	–	–	-30%	-2.4	100 µM	–
CCC(C)(OC(C)=O)C(=O)O[C@H]1[C@H](OC(C)=O)C[C@@H]2[C@@](C)([C@@H]3C[C@H]4C=CO[C@H]4O3)[C@H](C)C[C@H](OC(C)=O)[C@@]2(COC(C)=O)[C@@]12CO2 (stereo partly shown) [NCGC00380906-01]	–	–	–	-20%	-2.4	10 µM	–
NS(=O)(=O)c1ccc(Cc2cn(-c3nc(C(=O)O)cs3)c3ncccc23)cc1 [NCGC00356703-01]	-41%	–	44.7 µM	–	–	–	Curve Class [4]: -2.2
C=C1C(=O)O[C@@H]2C(OC(=O)/C(C)=C\C)/C(C)=C\C(=O)/C=C(\C)C[C@H](O)[C@@H]12 (stereo partly shown) [NCGC00381208-01]	–	–	–	-28%	-1.4	1.6 µM	–
C=C1C2(C)CC3C(C)(O)C4=CC(=O)OC(C)(C)C4=CCC3(C)C13C(=O)OC(C)C3(O)C2=O (stereo not shown) [NCGC00380442-01]	–	–	–	-28%	-2.4	35.5 µM	–
Cc1ccn2c(Nc3ccc4c(c3)OCO4)c(-c3ccccn3)nc2c1.O=C(O)C(F)(F)F [NCGC00241360-01]	-51%	–	56.2 µM	–	–	–	Curve Class [4]: -2.4
Cc1nc2sccn2c(=O)c1CCN1CCC(=C(c2ccc(F)cc2)c2ccc(F)cc2)CC1 [NCGC00015877-09]	–	–	–	-22%	-2.2	56.2 µM	–

SMILES	Efficacy (%) [1]	Curve Class [1]	IC50 [1]	Efficacy (%) [2]	Curve Class [2]	IC50 [2]	further results
Oc1cc(Cl)ccc1Oc1ccc(Cl)cc1Cl [NCGC00159417-06]	-22%	-2.4	100 µM	–	–	–	–
CCCCCCCCCCCC[N+](C)(C)Cc1ccccc1.[Cl-] [NCGC00164245-03]	-38%	-2.2	50.1 µM	–	–	–	–
N.N.N.N.N.N.N.N.N.N.N.N.N.N.O.O.[Ru].[Ru].[Ru] [NCGC00162333-02]	–	–	–	-26%	-2.2	56.2 µM	–
Cl.Oc1ccc([C@H]2CNCc3c2ccc(O)c3O)cc1O [NCGC00183049-01]	-93%	-3	89.1 µM	–	–	–	–
Cc1c(OCC(F)(F)F)ccnc1C[S+]([O-])c1nc2ccccc2[nH]1 (stereo not shown) [NCGC00015615-15]	-26%	-2.4	50.1 µM	–	–	–	–
Oc1ccc(Cl)cc1Sc1cc(Cl)ccc1O [NCGC00013679-06]	-30%	–	50.1 µM	–	–	–	Curve Class [4]: -2.4
CCC(C)(C)n1nnnc1C(c1cc2ccc(OC)cc2[nH]c1=O)N1CCc2ccccc2C1.O=C(O)C(F)(F)F (stereo not shown) [NCGC00350929-01]	-29%	–	56.2 µM	–	–	–	Curve Class [4]: -2.4
CN1CCc2ccccc2Cc2[nH]c3ccccc3c2CC1 [NCGC00015614-05]	–	–	–	-28%	-2.4	31.6 µM	–
O=C(Cn1nc(-c2ccc(F)cc2)ccc1=O)NCCc1ccccc1.O=C(O)C(F)(F)F [NCGC00262332-01]	-24%	-2.4	56.2 µM	–	–	–	–
CC1=C(C(=O)N(C)C)C(c2ccccc2Br)N=C(Nc2nc3ccccc3o2)N1.O=C(O)C(F)(F)F (stereo not shown) [NCGC00229733-01]	-27%	-2.4	56.2 µM	–	–	–	–
O=C(NCc1ccc(Oc2ccccc2)cc1)c1nc(-c2cc(Br)c(O)c(Br)c2)no1 [NCGC00386303-01]	–	–	–	-24%	-1.4	17.8 µM	–
COc1ccc(C(=O)O[C@H]2C=COC=C3C=C4C(=O)N(C)C(=S)C(=O)N4[C@@H]32)cc1Oc1cc(C=O)ccc1O [NCGC00384899-01]	-66%	-2.2	22.4 µM	–	–	–	–
COc1ccc(C2CC(=O)Nc3nc(N4CCOCC4)sc32)c(OC)c1.O=C(O)C(F)(F)F (stereo not shown) [NCGC00488259-02]	-59%	–	56.2 µM	–	–	–	Curve Class [4]: -2.4
Cc1cc(C)nc(NC(=S)N2CCN(c3cc4ccccc4cn3)CC2)c1.O=C(O)C(F)(F)F [NCGC00244142-01]	-31%	–	79.4 µM	–	–	–	Curve Class [4]: -2.4
O=c1c(O)c(-c2ccc(O)cc2O)oc2cc(O)cc(O)c12 [NCGC00261461-01]	–	–	–	-26%	-1.2	4 µM	–
O=C(Nc1nc(-c2ccccc2)cs1)c1ccncc1NS(=O)(=O)c1ccc(Cl)cc1.O=C(O)C(F)(F)F [NCGC00344892-01]	-48%	–	53.2 µM	–	–	–	–
COC[C@H]1OC(=O)c2coc3c2[C@@]1(C)C1=C(C3=O)C2CCC(=O)[C@@]2(C)C[C@H]1OC(C)=O (stereo partly shown) [NCGC00016094-12]	–	–	–	–	–	–	Efficacy (%) (qHTS FP screen hits, Table S2): -33%; Curve Class [3]: -2.2; IC50 (qHTS FP screen hits, Table S2): 29.3 µM
Cc1cc(O)c2c(c1)C(=O)c1cc(O)cc(O)c1C2=O [NCGC00015420-08]	-31%	-1.2	10 µM	–	–	–	–
O=C1NC(=O)/C(=C/c2ccc3nccnc3c2)S1 [NCGC00261632-01]	–	–	–	-20%	-1.2	7.9 µM	–
C=CC(=O)Nc1cccc(Nc2nc(Nc3ccc(OCCOC)cc3)ncc2F)c1 [NCGC00386306-06]	–	–	–	-22%	-1.4	10 µM	–
O=C(O)CCc1ccc(NCc2cccc3c2CCCN3CCOc2ccccc2)cc1F [NCGC00370998-03]	–	–	–	-32%	-2.4	44.7 µM	–
O=C(O)C1NCc2[nH]cnc2C1c1ccccc1 (stereo not shown) [NCGC00167998-01]	-28%	-2.4	50.1 µM	–	–	–	–
Oc1cccc(C2=C3C=CC(=N3)C(c3cccc(O)c3)=C3C=CC(=N3)C(c3cccc(O)c3)=C3CCC(=N3)C(c3cccc(O)c3)=C3C=CC2=N3)c1 [NCGC00183015-01]	-29%	–	50.1 µM	–	–	–	Curve Class [4]: -2.4
CCN(CC)CCCN(c1ccccc1)C1Cc2ccccc2C1.Cl [NCGC00167576-02]	-57%	–	89.1 µM	–	–	–	Curve Class [4]: -3
